Experimental data reported in a melting point compilation (Tetko et al.; mined from patent text by program, amines drawn as free bases though some values may be those of a salt).

melting point	SMILES
135 to 136 °C	Cc1cccc(N2CCN(Cc3ccc4c(c3)NCCN4)CC2)c1
182 °C	COc1cccc(OC)c1C1(O)C(=O)Nc2ccc(Cl)cc21 (centres undefined)
222 to 224 °C	CC(=O)NC[C@H]1CN(c2ccc(N3CCC(C#N)(CC#N)CC3)c(F)c2)C(=O)O1
263 to 265 °C	CCc1c2nc(-c3cc(S(C)(=O)=O)ccc3OCC(C)C)[nH]c(=O)c2nn1C1CCNCC1
60.3 to 61.3 °C	CCCCCc1ccc(-c2ccc(N)cc2)nc1
138 to 140 °C	COc1ccccc1N1CCN(CCN(C(=O)C2CCCCC2)c2ccccc2N)CC1
287 to 290 °C	O=C1Nc2ccc(Br)cc2C1c1ncnc2c1cnn2C1CCCC1 (centres undefined)
97 to 99 °C	CN(Cc1ccccc1)c1nc2c(cc1C#N)C(=O)CC(C)(C)C2
202 to 206 °C	O=C(c1ccc(O)cc1)N1CC=CCC1
126 to 127 °C	CCCCCCCCCCCCc1ccc(S(=O)(=O)Nc2nncs2)cc1
79 to 80 °C	CCc1nc(COc2ccc([N+](=O)[O-])cc2)cs1
242 to 245 °C	O=[N+]([O-])c1cccc2nc[nH]c12
210 to 211 °C	CCn1c(=O)c2cccnc2n(-c2cccc([N+](=O)[O-])c2)c1=O
202 to 205 °C	Cc1[nH]c(=O)n(-c2cc(C(=O)OC(C)C)c(Cl)cc2F)c(=O)c1[N+](=O)[O-]
120 to 122 °C	Cc1c(C2CCCCC2)nn(C)c1C1CCCCC1
199 to 200 °C	COC(=O)C(=O)c1cn(C)c2cc(-c3ccc(C(F)(F)F)cc3)ccc12
227 °C	NC(=O)Oc1ccccc1-c1nc2ccc(OCc3c(F)cccc3Cl)cc2s1
277 to 279 °C	COc1cc(OC)c2c(=O)[nH]c(-c3ccc(N(CCO)CCO)cc3)nc2n1
158 to 161 °C	CS(=O)(=O)c1ccc(-c2[nH]c(S)nc2-c2ccc(F)cc2)cc1
170 to 172 °C	O=C(Nc1ccc(Cl)cn1)c1cc(Cl)ccc1NCC1CCN(C2CCCCCC2)CC1
49 to 50 °C	CCCC(=O)COS(=O)(=O)c1c(C)cc(C)c(C)c1C
150 to 151 °C	O=[N+]([O-])c1ccccc1CN1CCC(c2cc(-c3ccc(Cl)cc3)[nH]n2)CC1
90.5 to 92.5 °C	CCOC(=O)c1cccnc1N
290 °C	CCCCc1nc2ccc(C(=O)O)cc2n1Cc1ccc(C(=O)O)cc1
115 to 120 °C	N#Cc1[nH]n(-c2ccccc2)c(=O)c1N=Nc1cc(S(=O)(=O)Cl)ccc1Cl

melting point	SMILES
77 to 80 °C	CN(C)CCCNC(=O)c1ccc(-c2nnc(CSCCCOc3ccccc3)o2)cc1
173 to 174 °C	CCOC(=O)CCc1cc(O)nn1C1CCCCC1
78 to 80 °C	NCCCCCCCNC(=O)OCc1ccccc1
78 to 80 °C	C=CCOc1ccc2sc(=O)oc2c1
242 to 244 °C	O=C1Cc2c(cccc2C(=O)O)Sc2ccc(F)cc21
209 to 211 °C	O=C(Nc1c[nH]nc1C(=O)NCCCO)c1ccccn1
109 °C	O=[N+]([O-])c1nccn1C1CCCC1O (centres undefined)
191 °C	O=c1ncc(Cl)cn1CSc1ccc(Cl)cc1
150 to 152 °C	CCN1CCC(c2c[nH]c3ccc(NC(=N)c4cccs4)cc23)CC1
174 to 175 °C	CCCCC1C=C(n2c3ccccc3c3ccccc32)c2ccccc2N1C(=O)c1ccc(OC)c(OC)c1 (centres undefined)
172 to 175 °C	O=S(=O)(c1ccccc1)n1cnc(-c2ccc(F)cc2)c1-c1ccc(F)cc1
174 to 176 °C	COc1cc2cnn(CCO)c(=O)c2cc1OC
120 °C	CC(C)N(c1ccc(C(=O)Oc2ccccc2)c(Cl)c1)S(=O)(=O)c1ccccc1
123 to 139 °C	CC1CCC(CNc2cc3oc(=O)[nH]c3cc2F)C(C)O1 (centres undefined)
255 to 257 °C	C[C@@H]1CN(C(=O)N(c2ccccc2)c2ccccc2)[C@@H](C)CN1C(=O)N(c1ccccc1)c1ccccc1
154 °C	COc1c(C2CCN(CCCCNC(=O)c3ccc(-c4ccc(C#N)cc4)cc3)CC2)ccc2c1CCCC2
103 °C	Cc1ccc(CN2CCN(c3cc(-c4ccccc4)ccn3)CC2)cc1
197 to 200 °C	Cc1nnc2ccc(-c3cccc(CC(=O)NC(C)C)c3)nn12
207 °C	CN(C)CC(=O)Nc1ccc(Cl)c(C(=O)Nc2cccc3c4c(oc23)CCCC4)c1Cl
207 to 209 °C	CCCc1c2nc(C(=O)OCC)cc(C#N)c2cc2c(=O)cc(C(=O)OCC)oc12
156 to 157 °C	Cc1ccc(C(=O)O)c([N+](=O)[O-])c1
136 to 137 °C	O=C1CC(c2ccc(Oc3ccc(C(F)(F)F)cc3)cc2)Cc2ccccc21 (centres undefined)
229 to 231 °C	O=C(O)Cn1c(-c2cc(Br)co2)nc2cccnc21
167 to 168 °C	CCCn1nc2c(N)nc3c(c2c1CC(C)C)CCCC3
157 to 158 °C	COC(=O)c1cccc(-c2cc(-c3ccc(Cl)cc3)on2)c1

melting point	SMILES
155 to 160 °C	COc1cc(Nc2c(C#N)cnc3cc(-c4ccc(CN5CCCCC5)s4)ccc23)c(Cl)cc1Cl
135 to 137 °C	O=C1C(=O)c2ccccc2C2=C1SCC1(CCN(CC3CCCCO3)CC1)O2 (centres undefined)
210 to 212 °C	O=C1Cc2ccccc2C(c2ccccc2C(F)(F)F)N1 (centres undefined)
190 °C	COCOc1ccc(C(=O)Cn2c(-c3nonc3N)nc3ccccc32)cc1OC
123 to 125 °C	O=C(Nc1cc(F)cc(F)c1)Oc1ccccc1
179 °C	CSc1cncc(O)c1
204 to 206 °C	O=C(O)Cc1c(-c2ccc(Cl)cc2)nn(-c2ccccc2)c1-c1ccc(Cl)cc1
125 °C	CN(CCCCCCCNC(=O)NCCSCc1csc(NC(=N)N)n1)CCN(Cc1ccc(F)cc1)c1ccccn1
160 °C	CCOC(=O)COc1cc2c(c(Cl)c1Cl)C(=O)C(c1ccc(Cl)cc1)C2 (centres undefined)
58 to 59 °C	O=C(O)C(=O)c1ccc(OCCCc2ccccc2)cc1
160 to 164 °C	COc1ccc(C(CC(=O)O)N2C(=O)c3ccccc3C2=O)cc1 (centres undefined)
177 to 178 °C	COC(=O)c1nccnc1NS(=O)(=O)c1cccc(Cl)c1Cl
139 to 144 °C	C#Cc1cccc(Oc2nc(Oc3cccc(C#C)c3)nc(-c3ccccc3)n2)c1
90 to 91 °C	COc1ccc(C2(C#Cc3ccccc3)CCCC(=O)C2)cc1OC1CCCC1 (centres undefined)
94 to 96 °C	CON=C(C)C1=CCCN(O)C1
228 to 230 °C	Cc1cc(NC(=O)CCC(=O)O)ccc1-n1c(C)nc2ccccc2c1=O
152 to 153 °C	Cn1c(C(F)(F)F)cc(=O)n(-c2ccc(Cl)c3c2OC(C)(C)C3)c1=O
268 to 270 °C	N#Cc1ccc2c(c1)S(=O)(=O)N=CN2C1CC1
57 °C	CC(C)(C)C(O)(COc1ccc(Cl)cc1)Cn1cncn1 (centres undefined)
213 to 214 °C	CCCCn1ncc(/C=C(\Cc2cc3c(cc2OC)OCO3)C(=O)O)c1-c1ccc(OC)cc1OCc1ccccc1C(=O)O
158 to 160 °C	Cc1ccccc1NNC(N)=S
109 to 112 °C	CCNC(=O)Nc1scc(-c2ccccc2)c1C(=O)OCC
182 to 183 °C	OCc1cnc2sc3c(n12)CCCC3
232 to 234 °C	CCCC(=O)Nc1ccc(C2=NNC(=O)NC2C)cc1 (centres undefined)
152 to 156 °C	OC(=S)c1c(F)cccc1-c1ccccc1

melting point	SMILES
102 to 105 °C	CN(C)/C=C(\C#N)c1cccc(Br)c1
88.5 to 89.7 °C	CC(=O)Oc1ccccc1C(=O)Nc1cccc(F)c1
293 to 297 °C	O=CNc1ccc2[nH]c3cc(-c4ccccc4Cl)c4c(c3c2c1)C(=O)NC4=O
109 to 115 °C	NCCC(=O)NCCCCCNC(=O)Cc1cccc(O)c1
88 °C	CCN(CC)C(=O)COc1nc(-c2ccccc2)c2ccccc2n1
201 to 203 °C	CCN(C)C(=O)c1cnn(C)c1C(=O)Nc1ccn2nc(N3CCOCC3)nc2c1
135 to 136 °C	CC(C)Sc1nc2c(cc1C#N)C(=O)CC(C)(C)C2
128 to 132 °C	Nc1nc2c(s1)CCN(CC=Cc1ccsc1)CC2
122 to 124 °C	COC(=O)c1cc([N+](=O)[O-])cn1C
156 to 159 °C	CCOc1cc2ncc(C#N)c(NCc3cccc(Br)c3)c2cc1OCC
185 to 187 °C	Cc1c(SCCCSc2nnnn2CC(=O)O)ccnc1CSc1ccncc1
45 to 47 °C	CCCCCCCN(CCO)c1cccc(O)c1
140 to 142 °C	O=C1N(Cc2ccc(Cl)s2)c2ccccc2C12COc1ccc(Br)cc12 (centres undefined)
142 to 146 °C	CC(C)NC(=O)Nc1ccnc(Cl)c1
89 °C	C=CCOC(=O)NC(=O)C(C)(c1ccccc1)c1ccccc1
125 to 127 °C	Cc1cc(O)ccc1-c1ccc(C=O)c(Cl)c1
255 to 258 °C	Nc1cccc(C(=O)O)c1S
99 to 101 °C	ClCCCCCOc1ccc(C2=C(c3ccccc3)CCCc3cc(OC4CCCCO4)ccc32)cc1 (centres undefined)
159 to 160 °C	C[C@@H](NC(=NC#N)Nc1ccc(C#N)cc1)C(C)(C)C
239 to 241 °C	CNS(=O)(=O)c1cc(C(=O)NNC(=O)c2occ(-c3ccccc3)c2-c2ccccc2)ccc1OC
178 to 180 °C	CN1CCN(CC(=O)N2CC=C(c3cccc(C(F)(F)F)c3)n3ncc(C#N)c32)CC1
176 to 177 °C	COc1c(N2CCCC(NC(C)=O)C2)c(F)cc2c(=O)c(C(=O)O)cn(C3CC3)c12 (centres undefined)
209 to 210 °C	CC(C)N1C(=O)C(NC(=O)CCC2CCCCC2)N=C(N(C)C)c2ccccc21 (centres undefined)

SMILES	melting point
CN1Cc2c(C(N)=O)ncn2-c2cccc(Cl)c2C1=O	> 250 °C
O=C(Nc1nccs1)c1cn(CC2CCCC2)c2cc(Cl)ccc12	117 to 119 °C
CCCN(CCC)Cc1nc(-c2ncn3c2[C@@H]2CCN2C(=O)c2c(Cl)cccc2-3)no1	147 to 153 °C
CCC12CCC3C4CCC(=O)C=C4C=CC3C1CCC2OC(C)=O (centres undefined)	163 to 177 °C
Nc1nnn(C2CN3CCC2CC3)n1 (centres undefined)	132 to 134 °C
COc1ccc(Nc2nc(NN3CCCCCC3)nc(N(C)C3CCNCC3)n2)cc1Cl	81 °C
